Reference: patent US20120252730A1, “PLATELET AGGREGATION INHIBITORS” (UNIVERSITY OF CHICAGO, priority 2009, published 2012)
Ends that are not written are not given here.

Tests used:
platelets [1] = settings: cited from earlier work
αIIbβ3 CHO K1 cells [2] = test: Cell adhesion assay: αIIbβ3 CHO K1 cells on SAMs presenting immobilized peptides; type: cell-based, human; settings: 0.5% peptide SAM; in presence of 300 μM cRGDFG
Experimental: Monolayers were prepared as described (Houseman, et al., 2003). Glass coverslips were sonicated for 30 minutes in deionized ultrafiltered (DIUF) water and then 30 minutes in ethanol and then dried under a stream of nitrogen. Titanium (4 nm) and then gold (29 nm) were evaporated onto the coverslips using an electron beam evaporator (Boc Edwards) at a rate of 0.05-0.10 nm/s and at a pressure of 1 μTorr. The gold-coated coverslips were immersed in an ethanolic solution of maleimide-terminated disulfide (1%) and tri(ethylene glycol)-terminated disulfide (99%) overnight at room temperature. The total disulfide concentration was 1 mM. The substrates were washed with DIUF water, ethanol and then dried under a stream of nitrogen.
The pcDNA3.1 vectors that express human αIIb or β3, respectively, have been described previously (see e.g., Litvinov et al. (2006) Biochemistry, 45: 4957-4964). CHO K1, BHK 21 and HT1080 cells were purchased from ATCC. All CHO cells were cultured at 37° C. and 5% CO2 using F12K medium supplemented with 10% FBS and pen/strep. […] CHO K1 cells were transfected with αIIb and β3 cDNA with FuGENE following the supplier's protocol. Transfected cells were selected with 1 mg/mL zeocin and 1 mg/mL geneticin.
(§1) Cysteine-terminated peptides were immobilized onto maleimide-presenting SAMs by adding 40 μL of 1 mM peptide solution to the biochip and incubating at 37° C. for 1 hour. Substrates were rinsed with DIUF water and ethanol and dried under a stream of nitrogen. αIIbβ3 CHO K1 cells were detached from culture plates with 1 mM EGTA/2 mM EDTA in PBS (phosphate-buffered saline), rinsed with serum-free F-12K medium, centrifuged and resuspended in serum-free F-12K medium supplemented with cRGDFG (SEQ ID NO: 12) (300 μM) and 1× penicillin/streptomycin. After 15-minute of incubation, cells (200,000/mL) were added to substrates in 24-well culture plates. After 2 hour incubation at 37° C. and 5% CO2, media was exchanged for F-12K medium supplemented with 10% FBS, 1× penicillin/streptomycin and cRGDFG (SEQ ID NO: 12) (300 μM). After 2 hours, the substrates were washed gently with warm PBS, and adherent cells were immediately fixed with 4% formaldehyde for 30 minutes, visualized with a 20× objective of a Zeiss Axiovert 200 inverted microscope, and photographed. For cell adhesion assays mediated by Ac-GXGDSC (SEQ ID NO: 26), αIIbβ3 CHO K1 cells were incubated on a 5×4 circle (1 mm diameter) array for 1 hour with serum-free F-12K medium supplemented with cRGDFG (SEQ ID NO: 12) (300 μM) and 1× penicillin/streptomycin, followed by media exchange to F-12K medium supplemented with 10% FBS, 1× penicillin/streptomycin and cRGDFG (SEQ ID NO: 12) (300 μM. The substrates were washed with warm PBS, and adherent cells were immediately fixed and permeabilized with 4% formaldehyde and 0.5% Triton-X for 30 minutes. Fixed cells were stained with DAPI, visualized and photographed with a 20× objective as described. The number of adherent cells per field of view was counted using Image J software. Cells were counted in at least three fields for each circle, and each experiment was repeated 3 times. The degree of adhesion is reported as a percentage of cells that adhere relative to control experiments with the peptide Ac-GRGDSC (SEQ ID NO: 28).
Monolayers were prepared that presented a mixture of maleimide groups and tri(ethylene glycol) groups with the former present at a density of 0.5% (relative to total alkanethiolate). The monolayers were treated with cysteine-terminated peptides to immobilize the ligands (FIG. 1A). In each case mass spectrometry was used to verify immobilization of the peptides in high yield (Su et al., 2002).
The adhesion and spreading of αIIbβ3 CHO K1 cells to monolayers presenting GRGDSC (SEQ ID NO: 11), HHLGGAKQAGDVC (SEQ ID NO: 21) and a mixture of both peptides was compared. […]

αIIbβ3 CHO K1 cells [3] = test: Immunostaining of cytoskeletal structure of αIIbβ3 CHO K1 cells adherent to model substrates; type: cell-based, human; settings: monolayers presenting the peptide; four hours; anti-vinculin, phalloidin, DAPI
Source text: αIIbβ3 CHO K1 cells were allowed to adhere and spread on substrates as described above. Substrates were washed gently with PBS, and fixed and permeabilized as described above. Cells were stained with monoclonal anti-vinculin IgG to visualize focal adhesions, phalloidin to visualize stress fibers and DAPI to visualize the nucleus. Substrates were rinsed thoroughly with PBS and mounted on microscope slides with Aqua Poly/Mount (PolySciences Inc.). Substrates were visualized with a 100× objective of a Zeiss Axiovert 200 inverted microscope, and photographed.
The assembly of focal adhesion and actin stress fibers of αIIbβ3 CHO K1 cells adhered to monolayers presenting GRGDSC (SEQ ID NO: 11), HHLGGAKQAGDVC (SEQ ID NO: 21) a mixture of both peptides, and adsorbed Fbg (FIGS. 3, E, F, G and H respectively) was compared. The αIIbβ3 CHO K1 cells were allowed to attach and spread on the monolayers for four hours, and then fixed the cells and probed with anti-vinculin IgG to visualize focal adhesions and with phalloidin-AF 488 to visualize actin stress fibers.

CHO K1 cells = test: Blocking of CHO K1 cell attachment to GRGDSC monolayer; type: cell-based; settings: 300 μM
Source text: (§2) FIG. 2 depicts the results of FACS analyses and binding studies of a αIIbβ3 expressing CHO K1 cell line. […] Transfected αIIbβ3 CHO K1 cells express αIIbβ3 at the cell surface, as detected by anti-β3 and PAC-1 antibody (bottom) (the middle and right hand lanes show anti-β3 antibody and PAC-1 antibody binding, respectively). Panel B is a graph of the concentration of cRGDFG (SEQ ID NO: 12; where F is a D amino acid) versus adhesion of αIIbβ3 CHO K1 cells. The peptide cRGDFG (SEQ ID NO: 12), a cyclic peptide that specifically binds to α5 and αV integrins, inhibits CHO K1 cell adhesion to 0.5% GRGDSC (SEQ ID NO: 11) SAMs. Panels C-F are photomicrographs of cells adhering to GRGDSC (SEQ ID NO: 11).
(§3) CHO K1 cells were used that were transfected with the αIIbβ3 receptor, as described previously (Salsmann et al., 2005). Cells were transfected with pcDNA3.1 vectors that coded for αIIb and β3 using FuGENE6 and analyzed by FACS after labeling with the PAC-1 (anti-αIIbβ3) and H-96 (anti-β3) antibodies. Approximately 30% of the cells expressed the receptor (FIG. 2A). Because the CHO K1 cells also express αv and α5 integrins on their surfaces, adhesion experiments were performed in the presence of the cyclic peptide cRGDFG (SEQ ID NO: 12), where F is a D amino acid. […] All experiments that follow, unless stated otherwise, were performed in the presence of 300 μM cRGDFG (SEQ ID NO: 12).

αvβ3 = αvβ3 (Homo sapiens, UniProt P05106+P06756); settings: cited from earlier work
αIIbβ3 CHO K1 cells [4] = test: Blocking of αIIbβ3 CHO K1 cell adhesion to GRGDSC monolayer; type: cell-based, human; settings: 300 μM
Source text: as §2, §3

αIIbβ3 = biological target: T1, αIIbβ3 (Homo sapiens, UniProt P05106+P08514); settings: cited from earlier work
T1 construct: host or cells: platelets

platelets [5] = settings: cited from earlier work; remark: listed apart in the source
αIIbβ3 CHO K1 cells [6] = test: Ac-GXGDSC peptide array cell adhesion, αIIbβ3 CHO K1 cells; type: cell-based, human; settings: 0.5% peptide spots; 300 μM cRGDFG
Experimental: as §1
To further assay the binding of peptide ligands to the […] integrin for XGD peptide ligands, an array was used to assess the adhesion of cells to peptides having the arginine residue substituted with each amino acid other than cysteine (e.g., A, D, E, F, G, H, I, K, L, M, N, P, Q, R, S, T, V, W, and Y). The library of Ac-GXGDSC (SEQ ID NO: 26) peptides was synthesized and immobilized in an array with each peptide occupying a 1 mm diameter region of the monolayer (FIG. 61). A suspension of αIIbβ3 CHO K1 cells was applied to the entire array and cells were allowed to attach to regions presenting the various peptides. The substrates were then rinsed and stained with DAPI, and the cells were counted to determine the relative efficiency of cell attachment to peptides in the library. […] Substitution with leucine and isoleucine were also active, though at a lower level.

HT1080 cells = test: Ac-GXGDSC peptide array cell adhesion, HT1080 cells; type: cell-based
CHO-K1 cells = test: Ac-GXGDSC peptide array cell adhesion, CHO K1 cells; type: cell-based
Experimental: Cysteine-terminated peptides were immobilized onto maleimide-presenting SAMs by adding 40 μL of 1 mM peptide solution to the biochip and incubating at 37° C. for 1 hour. Substrates were rinsed with DIUF water and ethanol and dried under a stream of nitrogen. αIIbβ3 CHO K1 cells were detached from culture plates with 1 mM EGTA/2 mM EDTA in PBS (phosphate-buffered saline), rinsed with serum-free F-12K medium, centrifuged and resuspended in serum-free F-12K medium supplemented with cRGDFG (SEQ ID NO: 12) (300 μM) and 1× penicillin/streptomycin. After 15-minute of incubation, cells (200,000/mL) were added to substrates in 24-well culture plates. After 2 hour incubation at 37° C. and 5% CO2, media was exchanged for F-12K medium supplemented with 10% FBS, 1× penicillin/streptomycin and cRGDFG (SEQ ID NO: 12) (300 μM). After 2 hours, the substrates were washed gently with warm PBS, and adherent cells were immediately fixed with 4% formaldehyde for 30 minutes, visualized with a 20× objective of a Zeiss Axiovert 200 inverted microscope, and photographed. […] The number of adherent cells per field of view was counted using Image J software. Cells were counted in at least three fields for each circle, and each experiment was repeated 3 times. […]

BHK 21 cells = test: Ac-GXGDSC peptide array cell adhesion, BHK 21 cells; type: cell-based

Chain of αvβ3 (P06756 31-889 limits assumed): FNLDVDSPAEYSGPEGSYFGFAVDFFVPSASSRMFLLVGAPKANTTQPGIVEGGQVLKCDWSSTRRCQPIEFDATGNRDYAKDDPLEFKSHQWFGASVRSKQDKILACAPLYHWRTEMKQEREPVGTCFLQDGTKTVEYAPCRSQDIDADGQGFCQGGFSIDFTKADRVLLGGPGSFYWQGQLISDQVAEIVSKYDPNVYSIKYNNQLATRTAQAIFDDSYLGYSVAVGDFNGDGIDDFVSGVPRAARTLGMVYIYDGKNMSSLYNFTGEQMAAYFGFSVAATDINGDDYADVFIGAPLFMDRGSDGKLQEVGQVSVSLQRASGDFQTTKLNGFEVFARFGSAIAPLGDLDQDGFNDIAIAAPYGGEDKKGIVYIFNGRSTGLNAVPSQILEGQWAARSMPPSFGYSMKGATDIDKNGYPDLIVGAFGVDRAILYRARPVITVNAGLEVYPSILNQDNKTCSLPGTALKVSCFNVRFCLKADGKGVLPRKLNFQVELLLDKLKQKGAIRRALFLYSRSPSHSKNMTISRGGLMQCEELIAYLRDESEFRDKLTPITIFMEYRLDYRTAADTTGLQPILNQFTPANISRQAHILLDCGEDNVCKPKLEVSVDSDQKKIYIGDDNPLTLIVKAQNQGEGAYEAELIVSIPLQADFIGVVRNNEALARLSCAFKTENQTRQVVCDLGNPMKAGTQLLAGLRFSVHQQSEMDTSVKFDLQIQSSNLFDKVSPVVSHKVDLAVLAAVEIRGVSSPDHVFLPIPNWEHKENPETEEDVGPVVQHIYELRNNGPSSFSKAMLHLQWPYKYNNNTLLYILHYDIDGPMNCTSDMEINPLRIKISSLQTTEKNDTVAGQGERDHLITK
Chain of αvβ3 (P06756 891-1048 partner limits assumed): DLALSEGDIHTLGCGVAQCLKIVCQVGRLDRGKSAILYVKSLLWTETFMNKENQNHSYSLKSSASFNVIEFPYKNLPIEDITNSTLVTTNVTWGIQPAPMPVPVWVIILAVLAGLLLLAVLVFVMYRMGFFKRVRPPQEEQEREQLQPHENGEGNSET
Chain of αvβ3 (P05106 27-788): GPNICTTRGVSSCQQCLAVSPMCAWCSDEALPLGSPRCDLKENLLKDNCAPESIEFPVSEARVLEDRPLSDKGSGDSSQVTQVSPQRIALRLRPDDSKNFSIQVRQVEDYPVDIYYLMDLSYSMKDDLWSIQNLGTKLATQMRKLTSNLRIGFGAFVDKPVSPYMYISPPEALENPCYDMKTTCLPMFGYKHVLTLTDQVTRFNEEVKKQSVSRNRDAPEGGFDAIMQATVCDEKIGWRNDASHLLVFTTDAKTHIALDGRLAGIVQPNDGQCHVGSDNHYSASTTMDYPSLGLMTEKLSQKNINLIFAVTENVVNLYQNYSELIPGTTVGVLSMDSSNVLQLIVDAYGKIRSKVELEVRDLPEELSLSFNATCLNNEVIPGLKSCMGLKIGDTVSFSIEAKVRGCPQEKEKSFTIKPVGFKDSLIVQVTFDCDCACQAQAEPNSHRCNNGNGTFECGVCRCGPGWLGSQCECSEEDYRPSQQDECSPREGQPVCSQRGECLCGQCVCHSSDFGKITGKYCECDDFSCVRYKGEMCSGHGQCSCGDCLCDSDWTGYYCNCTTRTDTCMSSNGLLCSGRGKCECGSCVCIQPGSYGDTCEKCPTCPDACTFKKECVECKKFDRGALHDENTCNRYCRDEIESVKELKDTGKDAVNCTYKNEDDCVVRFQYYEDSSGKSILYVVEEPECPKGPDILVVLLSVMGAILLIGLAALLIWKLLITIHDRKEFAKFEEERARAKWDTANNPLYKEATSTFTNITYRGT

RGD
inhibition of A2A9 binding to platelets (platelets [1]): not

GRGDSC (GRGDSC-NH2) [Cys-terminated fibrinogen RGD peptide immobilized on monolayer]
adhesion of αIIbβ3 CHO K1 cells to monolayer presenting the peptide (αIIbβ3 CHO K1 cells [2]): adhered | cytoskeletal structure and focal adhesions of adherent cells (αIIbβ3 CHO K1 cells [3]): well-developed cytoskeletal structures and mature focal adhesions along the perimeter

cRGDFG
block of attachment of CHO K1 cells to monolayer presenting GRGDSC (CHO K1 cells): could efficiently block the attachment | IC50 (αvβ3): 1.6 nM | affinity for αvβ3 relative to αIIbβ3 integrin (αvβ3): approximately 1,400 fold | effect on adhesion of αIIbβ3 CHO K1 cells to monolayer presenting GRGDSC (αIIbβ3 CHO K1 cells [4]): did not interfere with adhesion

RGDS (synthesized peptide inhibitor)
inhibition of PAC-1 binding (αIIbβ3): blocked the binding of both PAC-1 and Fbg to platelets with equal potency | inhibition of Fbg binding to platelets (platelets [5]): blocked the binding of both PAC-1 and Fbg to platelets with equal potency

LGGAKQAGDV (not fully specified (C-terminus)) [γ-derived peptide]
inhibition of A2A9 binding to platelets (platelets [1]): could inhibit the binding of A2A9 to platelets | less potent in inhibiting PAC-1 binding to αIIbβ3 (αIIbβ3; compared with its inhibition of Fbg binding / RGDS): 2.5 fold | inhibition of Fbg binding to platelets (platelets [5]): inhibited Fbg binding to platelets with an affinity comparable to that of RGDS

Ac-GRGDSC (Ac-GRGDSC-NH2)
cell adhesion on Ac-GXGDSC array relative to Ac-GRGDSC (αIIbβ3 CHO K1 cells [6]): mediated αIIbβ3 CHO K1 cell adhesion | cell adhesion on Ac-GXGDSC array (HT1080 cells): promoted significant cell adhesion | cell adhesion on Ac-GXGDSC array (CHO-K1 cells): promoted significant cell adhesion | cell adhesion on Ac-GXGDSC array (BHK 21 cells): promoted significant cell adhesion
